Experiments:
HT-29 = assay: Cytotoxicity against human HT-29 cells after 48 hrs by Alamar Blue assay; type: functional, cell-based; conditions: HT-29, 48 h
LAMA-84 = assay: Cytotoxicity against human LAMA-84 cells after 48 hrs by Alamar Blue assay; type: functional, cell-based; conditions: LAMA-84, 48 h
BJ = assay: Cytotoxicity against human BJ cells after 48 hrs by Alamar Blue assay; type: cell-based

| SMILES | IC50 (HT-29) | IC50 (LAMA-84) | IC50 (BJ) |
| --- | --- | --- | --- |
| CC(C)CCC[C@@H](C)[C@H]1CC[C@H]2[C@@H]3CC[C@@]45O[C@@H]4[C@@H](O)CC[C@]5(C)[C@H]3CC[C@]12C | 61.9 µM | – | – |
| CC(C)CCC[C@@H](C)[C@H]1CC[C@H]2[C@@H]3CC[C@]45O[C@H]4[C@@H](O)CC[C@]5(C)[C@H]3CC[C@]12C | 22.6 µM | 11.2 µM | 31.4 µM |
| CC(C)CCC[C@@H](C)[C@H]1CC[C@H]2[C@@H]3[C@@H]4O[C@@]45C[C@@H](O)CC[C@]5(C)[C@H]3CC[C@]12C | 40.9 µM | – | – |
| CC(C)CCC[C@@H](C)[C@H]1CC[C@H]2[C@@H]3C[C@@H]4O[C@@]45[C@@H](O)[C@@H](O)CC[C@]5(C)[C@H]3CC[C@]12C | 38.2 µM | – | – |
| CC(C)CCC[C@@H](C)[C@H]1CC[C@H]2[C@@H]3C[C@H]4O[C@]45[C@@H](O)[C@@H](O)CC[C@]5(C)[C@H]3CC[C@]12C | 17.7 µM | 8 µM | 20.4 µM |
| CC(C)CCC[C@@H](C)[C@H]1CC[C@H]2[C@@H]3[C@H](O)C=C4C[C@@H](O)CC[C@]4(C)[C@H]3CC[C@]12C | 15.5 µM | – | – |
| CC(C)CCC[C@@H](C)[C@H]1CC[C@H]2[C@@H]3[C@H](O)[C@@H]4O[C@@]45C[C@@H](O)CC[C@]5(C)[C@H]3CC[C@]12C | 33.8 µM | – | – |
| CC(C)CCC[C@@H](C)[C@H]1CC[C@H]2[C@@H]3CC=C4[C@@H](O)[C@@H](O)CC[C@]4(C)[C@H]3CC[C@]12C | > 50 µM | – | – |
| CC(C)CCC[C@@H](C)[C@H]1CC[C@H]2[C@@H]3C[C@@H]4O[C@@]45C[C@@H](O)CC[C@]5(C)[C@H]3CC[C@]12C | > 50 µM | – | – |
| CC(C)CCC[C@@H](C)[C@H]1CC[C@H]2[C@@H]3C[C@H]4O[C@]45C[C@@H](O)CC[C@]5(C)[C@H]3CC[C@]12C | 37.6 µM | – | – |
| CC(C)CCC[C@@H](C)[C@H]1CC[C@H]2[C@@H]3[C@@H](O)[C@H]4O[C@]45C[C@@H](O)CC[C@]5(C)[C@H]3CC[C@]12C | 8.3 µM | 7 µM | 19.5 µM |
| CC(C)CCC[C@@H](C)[C@H]1CC[C@H]2[C@@H]3[C@@H](O)C=C4C[C@@H](O)CC[C@]4(C)[C@H]3CC[C@]12C | 6.4 µM | 4.8 µM | 20.1 µM |
| CC(C)CCC[C@@H](C)[C@H]1CC[C@H]2[C@@H]3[C@@H](O)[C@@H]4O[C@@]45C[C@@H](O)CC[C@]5(C)[C@H]3CC[C@]12C | 13.3 µM | 4.1 µM | 13.4 µM |
| CC(C)CCC[C@@H](C)[C@H]1CC[C@H]2[C@@H]3CCC4=C[C@@H](O)CC[C@]4(C)[C@H]3CC[C@]12C | > 50 µM | – | – |
| CC(=O)O[C@H]1CC[C@]2(C)[C@H]3CC[C@]4(C)[C@@H]([C@H](C)CCCC(C)C)CC[C@H]4[C@@H]3C[C@H]3O[C@]32[C@H]1O | 28.2 µM | – | – |
| CC(=O)O[C@H]1[C@@H](O)CC[C@]2(C)[C@H]3CC[C@]4(C)[C@@H]([C@H](C)CCCC(C)C)CC[C@H]4[C@@H]3C[C@H]3O[C@@]312 | 15.9 µM | 8.1 µM | – |
| CC(=O)O[C@H]1CC[C@@]2(C)C(=C[C@H](O)[C@H]3[C@@H]4CC[C@H]([C@H](C)CCCC(C)C)[C@@]4(C)CC[C@@H]32)C1 | 29.4 µM | – | – |
| CC(C)CCC[C@@H](C)[C@H]1CC[C@H]2[C@@H]3CC=C4C[C@@H](O)CC[C@]4(C)[C@H]3CC[C@]12C [CHOLESTEROL] | > 50 µM | – | – |
| COc1cccc2c1C(=O)c1c(O)c3c(c(O)c1C2=O)C[C@@](O)(C(=O)CO)C[C@@H]3O[C@H]1C[C@H](N)[C@H](O)[C@H](C)O1 [DOXORUBICIN] | 1.15 µM | 0.76 µM | 2.7 µM |

Reference: ChEMBL document CHEMBL1136993, “Efficient chemoenzymatic synthesis, cytotoxic evaluation, and SAR of epoxysterols” (J Med Chem, 2009)
